# Laboratory results from article PMC8523698, “Preclinical characterization of an intravenous coronavirus 3CL protease inhibitor for the potential treatment of COVID19” (Nature Communications, 2021).
# “And” between values parts separate entries of the source, which are not always exact repeats. Identical values can stand only once.
# Assays:
# [1] = target: T1, OATP1B1 (Homo sapiens, UniProt Q9Y6L6); experiment: Transporter inhibition using transfected HEK293 cells; conditions: IC50, Rosuvastatin (0.5 µM)
# T1 sequence (Q9Y6L6 1-691): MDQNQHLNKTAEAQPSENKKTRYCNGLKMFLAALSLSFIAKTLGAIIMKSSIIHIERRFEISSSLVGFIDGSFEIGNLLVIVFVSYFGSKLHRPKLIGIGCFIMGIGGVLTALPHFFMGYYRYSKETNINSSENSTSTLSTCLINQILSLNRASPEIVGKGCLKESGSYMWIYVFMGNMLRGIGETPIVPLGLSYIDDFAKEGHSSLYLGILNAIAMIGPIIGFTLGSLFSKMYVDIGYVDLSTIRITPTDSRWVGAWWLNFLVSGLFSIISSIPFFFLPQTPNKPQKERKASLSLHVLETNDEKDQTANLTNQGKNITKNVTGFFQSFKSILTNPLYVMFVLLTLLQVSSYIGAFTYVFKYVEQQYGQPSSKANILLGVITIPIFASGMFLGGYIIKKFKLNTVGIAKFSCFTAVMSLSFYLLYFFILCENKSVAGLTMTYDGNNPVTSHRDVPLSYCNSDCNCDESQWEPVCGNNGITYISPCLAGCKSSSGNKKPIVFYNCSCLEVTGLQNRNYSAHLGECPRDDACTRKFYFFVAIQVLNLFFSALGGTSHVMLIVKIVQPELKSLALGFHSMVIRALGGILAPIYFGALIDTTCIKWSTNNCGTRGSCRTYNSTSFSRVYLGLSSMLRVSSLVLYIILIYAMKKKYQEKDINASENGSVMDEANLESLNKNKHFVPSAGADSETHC
# [2] = Secondary/off-target pharmacology panel (Eurofins Cerep); conditions: assessed at 100 µM
# [3] = tested on: CYP3A4/5; experiment: Reversible CYP inhibition in human liver microsomes; conditions: for IC50: pH 7.4, probe midazolam (1′-hydroxylation), at approximately KM, IC50, Midazolam 1′-hydroxylation
# [4] = target: BCRP (Homo sapiens, UniProt Q9UNQ0); experiment: Transporter inhibition using membrane vesicles; conditions: IC50, Rosuvastatin (0.2 µM)
# Chain of BCRP (Q9UNQ0 whole entry): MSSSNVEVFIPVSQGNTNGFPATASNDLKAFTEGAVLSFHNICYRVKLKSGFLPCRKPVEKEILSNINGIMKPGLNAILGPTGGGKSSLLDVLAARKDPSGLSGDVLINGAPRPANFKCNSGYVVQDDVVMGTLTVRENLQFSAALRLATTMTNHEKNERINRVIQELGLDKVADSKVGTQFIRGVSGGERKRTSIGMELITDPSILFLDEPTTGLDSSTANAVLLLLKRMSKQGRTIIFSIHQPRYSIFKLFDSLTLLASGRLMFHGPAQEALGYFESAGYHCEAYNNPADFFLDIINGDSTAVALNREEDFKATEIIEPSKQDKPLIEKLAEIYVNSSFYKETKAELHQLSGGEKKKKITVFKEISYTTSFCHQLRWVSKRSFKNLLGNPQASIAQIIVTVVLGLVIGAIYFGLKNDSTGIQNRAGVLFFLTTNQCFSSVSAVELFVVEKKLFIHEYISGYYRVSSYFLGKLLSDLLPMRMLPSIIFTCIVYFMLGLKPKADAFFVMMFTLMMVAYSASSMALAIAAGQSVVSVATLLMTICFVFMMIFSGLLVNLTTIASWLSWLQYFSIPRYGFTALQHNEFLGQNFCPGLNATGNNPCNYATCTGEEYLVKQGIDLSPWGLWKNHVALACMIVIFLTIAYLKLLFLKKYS
# [5] = Plasma protein binding by equilibrium dialysis; conditions: human plasma; for fraction unbound at 6 h, 3.44 uM / fraction unbound at 6 h: human, plasma
# [6] = target: T2, MATE2K (Homo sapiens, UniProt Q86VL8); experiment: Transporter inhibition using transfected HEK293 cells; format: in vitro ADME; conditions: IC50, [14C]Metformin (20 µM)
# T2 construct: expressed in transfected cells; host or cells: HEK293
# T2 sequence (Q86VL8 1-566 isoform Q86VL8-3): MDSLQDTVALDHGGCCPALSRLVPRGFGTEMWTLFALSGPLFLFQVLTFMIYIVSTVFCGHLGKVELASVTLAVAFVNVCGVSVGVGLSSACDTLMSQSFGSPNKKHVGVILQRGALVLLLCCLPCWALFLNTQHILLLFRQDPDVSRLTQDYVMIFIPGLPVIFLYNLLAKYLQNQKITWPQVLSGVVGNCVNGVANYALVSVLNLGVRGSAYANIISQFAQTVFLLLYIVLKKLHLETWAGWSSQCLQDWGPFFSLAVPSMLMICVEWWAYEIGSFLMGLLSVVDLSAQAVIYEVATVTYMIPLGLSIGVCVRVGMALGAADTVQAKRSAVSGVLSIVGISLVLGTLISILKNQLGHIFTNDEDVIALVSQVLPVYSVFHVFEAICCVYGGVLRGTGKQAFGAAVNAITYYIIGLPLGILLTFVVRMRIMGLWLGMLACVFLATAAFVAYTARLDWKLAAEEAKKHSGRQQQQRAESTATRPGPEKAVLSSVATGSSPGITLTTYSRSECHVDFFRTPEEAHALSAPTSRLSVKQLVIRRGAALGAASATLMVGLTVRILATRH
# Protocol: For the inhibition studies, HEK293 cells were washed three times with warm transport buffer (Hanks’ balanced salt solution with 20 mM 4-(2-Hydroxyethyl) piperazine-1-ethanesulfonic acid, pH 7.4) followed by incubation with test compounds containing probe substrates: 10 or 20 µM [^14C]-metformin (OCT1, OCT2, MATE1, MATE2K), 0.5 µM [^3H] para-aminohippuric acid (OAT1), 0.1 µM [^3H] estrone-3-sulfate (OAT3) or 0.5 µM rosuvastatin (OATP1B1/1B3). Uptake was terminated by washing cells at least three times with ice-cold transport buffer and then lysing with 0.2 mL of scintillation fluid or 0.225 mL of methanol containing internal standard. For radiolabeled compounds, radioactivity in each sample was quantified by measurement on MicroBeta (Perkin Elmer). For rosuvastatin, cell extracts were dried down under nitrogen and reconstituted in 50:50 (v:v) methanol:water prior to injection onto a LC-MS/MS system. The total cellular protein content was determined by using a BCA Protein Assay Kit (Pierce Biotechnology) following the manufacturer’s protocol. Uptake ratio was then derived as a ratio of accumulation in transfected cells to accumulation in wild-type cells. The half-maximal inhibitory concentration (IC50) for each transporter was calculated in GraphPad Prism.
# [7] = Rat pharmacokinetic study; conditions: for Vd: Vdss
# [8] = human, human liver microsomes, pH 7.4, probe midazolam (mdz), Percent of Control Activity, CYP 3A4/5 (mdz), 30-Minute Preincubation
# [9] = human, human liver microsomes, pH 7.4, probe midazolam (mdz), Percent of Control Activity, CYP 3A4/5 (mdz), Zero-Minute Preincubation
# [10] = rat, PF-07304814 prodrug dosed […] intravenous, individual rats, […]
structure (smiles),measurement,setting,value
COc1cccc2[nH]c(C(=O)N[C@@H](CC(C)C)C(=O)N[C@@H](C[C@@H]3CCNC3=O)C(=O)COP(=O)(O)O)cc12 [PF-07304814],IC50,[1],134 µM and > 130 µM
same,secondary (off-target) pharmacology,[2],minimal potential for secondary (off-target) pharmacology
same,Percent of Control Activity,"[3]; CYP 3A4/5 (mdz), 0.01 µM, 30-Minute Preincubation",103.5%
same,Percent of Control Activity,"[3]; CYP 3A4/5 (mdz), 15.8 µM, Zero-Minute Preincubation",105.7%
same,Percent of Control Activity,"[3]; CYP 3A4/5 (mdz), 39.8 µM, 30-Minute Preincubation",99.7%
same,Percent of Control Activity,"[3]; CYP 3A4/5 (mdz), 100 µM, 30-Minute Preincubation",95.6%
same,Percent of Control Activity,"[3]; CYP 3A4/5 (mdz), 100 µM, Zero-Minute Preincubation",100.4%
same,IC50,"[3]; human, human liver microsomes, T0",> 100 µM
same,IC50,"[3]; human, human liver microsomes, T30",> 100 µM
same,activity at 0.01 µM,"[3]; human, human liver microsomes, pH 7.4, probe midazolam (mdz), Percent of Control Activity, CYP 3A4/5 (mdz), 0.01 µM, Zero-Minute Preincubation",96.3%
same,activity at 0.158 µM,[3]; [8],103%
same,activity at 0.158 µM,[3]; [9],95%
same,activity at 0.398 µM,"[3]; human, human liver microsomes, pH 7.4, probe midazolam (mdz), Percent of Control Activity, CYP 3A4/5 (mdz), 0.398 µM, 30-Minute Preincubation",100%
same,activity at 1 µM,[3]; [8],100%
same,activity at 1 µM,[3]; [9],99.8%
same,activity at 15.8 µM,"[3]; human, human liver microsomes, pH 7.4, probe midazolam (mdz), Percent of Control Activity, CYP 3A4/5 (mdz), 15.8 µM, Zero-Minute Preincubation",101%
same,activity at 100 µM,"[3]; human, human liver microsomes, pH 7.4, probe midazolam (mdz), Percent of Control Activity, CYP 3A4/5 (mdz), 100 µM, 30-Minute Preincubation",95%
same,IC50,[4],238 µM and > 130 µM
same,Individual fraction unbound,"[5]; 3.44 uM, replicates Day 1-3",0.199 and 0.194 and 0.181 and 0.192 and 0.178 and 0.182 and 0.198 and 0.168 and 0.191 and 0.180 and 0.167
same,"fraction unbound at 6 h, 3.44 uM","[5]; pH 7.4, Fraction unbound, Geomean, 3.44 uM, n 12",0.184
same,"fraction unbound at 6 h, 3.44 uM","[5]; pH 7.4, Individual fraction unbound, 3.44 uM, replicates Day 1-3",0.186
same,fraction unbound at 6 h,"[5]; pH 7.4, Measured plasma fu / Human plasma fu",0.184
same,fraction unbound at 6 h,"[5]; pH 7.4, Unbound fraction fu (%CV)",0.184
same,"fraction unbound at 6 h, 3.44 uM","[5]; pH 7.4, fraction unbound Geomean, 3.44 uM, n=12",0.184
same,IC50,[6],> 300 µM
same,clearance,"[7]; male, Wistar-Hannover, rat, plasma, iv, CL, rat IV, PF-07304814 […] (n=2, range), PF-00835231 2mg/kg (n=3, ± SD)",194 mL/min/kg
same,half-life,"[7]; male, Wistar-Hannover, rat, plasma, iv, Terminal T1/2, rat IV, PF-07304814 […] (n=2, range), PF-00835231 2mg/kg (n=3, ± SD)",18 min
same,Vd,"[7]; male, Wistar-Hannover, rat, plasma, iv, rat IV, PF-07304814 […] (n=2, range), PF-00835231 2mg/kg (n=3, ± SD)",0.58 L/kg
same,clearance,"[7]; male, Wistar-Hannover, rat, plasma, iv, […], Clearance, Mean Data, PF-07304814 prodrug dosed […] intravenous, mean",194 mL/min/kg
same,clearance,"[7]; male, Wistar-Hannover, rat, plasma, iv, […], Clearance, PF-07304814 prodrug dosed […] intravenous, individual rats",168 mL/min/kg
same,half-life,"[7]; male, Wistar-Hannover, rat, plasma, iv, […], Half life, Mean Data, PF-07304814 prodrug dosed […] intravenous, mean",18 min
same,half-life,"[7]; male, Wistar-Hannover, rat, plasma, iv, […], Half life, PF-07304814 prodrug dosed […] intravenous, individual rats",21.6 min
same,Vd,"[7]; male, Wistar-Hannover, rat, plasma, iv, […], Mean Data, PF-07304814 prodrug dosed […] intravenous, mean",0.58 L/kg
same,Vd,"[7]; male, Wistar-Hannover, rat, plasma, iv, […], PF-07304814 prodrug dosed […] intravenous, individual rats",0.567 L/kg
same,%unchanged in urine,"[7]; rat IV, PF-07304814 […], PF-00835231 2mg/kg",< 0.1%
same,Half life,[7]; [10],13.8 min
same,Vdss,[7]; [10],0.592 L/kg
same,clearance,[7]; [10],220 mL/min/kg
